Laboratory results from patent US10294234B2, “HIV inhibitor compounds” (priority 2017, dated 2019).
Like-named read-outs stand apart in the source and are kept apart here.

What was measured:
[1] = Procedure: Liver Microsomal Stability Protocol
Test compounds and one control compound (verapamil) were tested in 3 different species in duplicate sets.
Test compound concentration: 1 uM; Protein concentration: 0.5 mg/mL (for dog, rat, and human liver microsomes); Cofactor: NADPH-Regenerating system (NRS) solution; Time-points: 2, 12, 25, 45, and 65 minutes.
Reaction composition (in each incubation well) contains:
After plates were vortexed, they were centrifuged for 30 minutes to remove proteins. About 100 μL supernatant was removed to a new plate and diluted with 150 μL water. About 20 μL of the mixture was injected into LC/MS/MS system to monitor the compound's response. In vitro measured t1/2 was used to calculate Clint values.

[2] = tested on: HIV-1 (IIIB) in MT-4 cells; test: MT-4 HIV assay; type: cell-based; details: Human immunodeficiency virus 1, MT4, 120 h; HIV-1 (IIIB), MT-4 cells, 5 days, Cell Titer Glo; read-out: EC50
In short: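 MT-4 cells infected with HIV-1 IIIB (1:250 stock dilution) were incubated with 1:3 serially diluted compounds in RPMI with 10% FBS for 5 days at 37 °C. Cell Titer Glo luminescence was the readout. Plates included mock-infected wells, no-drug wells and 5 uM AZT controls.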

[3] = human liver microsomes 0.5 mg/mL, 1 uM compound, NADPH
[4] = rat liver microsomes 0.5 mg/mL, 1 uM compound, NADPH

SMILES: COC(=O)N[C@H](C(=O)N[C@@H](Cc1ccc(C#Cc2ccc(N3CC4CCC(C3)N4C3COC3)nc2)cc1)[C@@H](O)CN(Cc1c(F)cc(-c2nnc(C)o2)cc1F)NC(=O)[C@@H](NC(=O)OC)C(C)(C)C(F)(F)F)C(C)(C)C(F)(F)F [Example 11, Methyl ((5S,8S,9S,14S)-11-(2,6-difluoro-4-(5-methyl-1,3,4-oxadiazol-2-yl)benzyl)-16,16,16-trifluoro-9-hydroxy-15,15-dimethyl-8-(4-((6-(8-(oxetan-3-yl)-3,8-diazabicyclo[3.2.1]octan-3-yl)pyridin-3-yl)ethynyl)benzyl)-3,6,13-trioxo-5-(1,1,1-trifluoro-2-methylpropan-2-yl)-2-oxa-4,7,11,12-tetraazahexadecan-14-yl)carbamate]
- Human Pred Cl. ([1]; human, microsomes): 0.18 L/H/kg
- Rat. Pred. Cl. ([1]; rat, microsomes): 0.18 L/H/kg
- EC50 [2]: 3.72 nM

SMILES: COC(=O)N[C@H](C(=O)N[C@@H](Cc1ccc(C#Cc2ccc(N3CC4CCC(C3)N4C3COC3)nc2)cc1)[C@@H](O)CN(Cc1c(F)cc(-c2ccn([C@H]3CCOC3)n2)cc1F)NC(=O)[C@@H](NC(=O)OC)C(C)(C)C(F)(F)F)C(C)(C)C(F)(F)F [Example 14, Methyl ((5S,8S,9S,14S)-11-(2,6-difluoro-4-(1-((S)-tetrahydrofuran-3-yl)-1H-pyrazol-3-yl)benzyl)-16,16,16-trifluoro-9-hydroxy-15,15-dimethyl-8-(4-((6-(8-(oxetan-3-yl)-3,8-diazabicyclo[3.2.1]octan-3-yl)pyridin-3-yl)ethynyl)benzyl)-3,6,13-trioxo-5-(1,1,1-trifluoro-2-methylpropan-2-yl)-2-oxa-4,7,11,12-tetraazahexadecan-14-yl)carbamate]
- Human Pred Cl. ([1]; human, microsomes): 0.66 L/H/kg
- Rat. Pred. Cl. ([1]; rat, microsomes): 1.13 L/H/kg
- EC50 [2]: 4.39 nM

SMILES: COC(=O)N[C@H](C(=O)N[C@@H](Cc1ccc(C#Cc2ccc(N3CC4CCC(C3)N4C3COC3)nc2)cc1)[C@@H](O)CN(Cc1c(F)cc(-c2ccn(CC(C)(C)O)n2)cc1F)NC(=O)[C@@H](NC(=O)OC)C(C)(C)C(F)(F)F)C(C)(C)C(F)(F)F [Example 16, Methyl ((5S,8S,9S,14S)-11-(2,6-difluoro-4-(1-(2-hydroxy-2-methylpropyl)-1H-pyrazol-3-yl)benzyl)-16,16,16-trifluoro-9-hydroxy-15,15-dimethyl-8-(4-((6-(8-(oxetan-3-yl)-3,8-diazabicyclo[3.2.1]octan-3-yl)pyridin-3-yl)ethynyl)benzyl)-3,6,13-trioxo-5-(1,1,1-trifluoro-2-methylpropan-2-yl)-2-oxa-4,7,11,12-tetraazahexadecan-14-yl)carbamate]
- Human Pred Cl. ([1]; human, microsomes): <0.11 L/H/kg
- Rat. Pred. Cl. ([1]; rat, microsomes): 0.45 L/H/kg
- EC50 [2]: 4.64 nM

SMILES: COC(=O)N[C@H](C(=O)N[C@@H](Cc1ccc(C#Cc2ccc(N3CC4CCC(C3)N4C(=O)[C@@H]3CCCO3)nc2)cc1)[C@@H](O)CN(Cc1c(F)cc(-c2cnn(C(F)F)c2)cc1F)NC(=O)[C@@H](NC(=O)OC)C(C)(C)C(F)(F)F)C(C)(C)C(F)(F)F [Example 18, Methyl ((5S,8S,9S,14S)-11-(4-(1-(difluoromethyl)-1H-pyrazol-4-yl)-2,6-difluorobenzyl)-16,16,16-trifluoro-9-hydroxy-15,15-dimethyl-3,6,13-trioxo-8-(4-((6-(8-((S)-tetrahydrofuran-2-carbonyl)-3,8-diazabicyclo[3.2.1]octan-3-yl)pyridin-3-yl)ethynyl)benzyl)-5-(1,1,1-trifluoro-2-methylpropan-2-yl)-2-oxa-4,7,11,12-tetraazahexadecan-14-yl)carbamate]
- Human Pred Cl. ([1]; human, microsomes): 0.13 L/H/kg
- Rat. Pred. Cl. ([1]; rat, microsomes): 1.03 L/H/kg
- EC50 [2]: 5 nM

SMILES: COC(=O)N[C@H](C(=O)N[C@@H](Cc1ccc(C#Cc2ccc(N3C4CCC3CN(C3COC3)C4)nc2)cc1)[C@@H](O)CN(Cc1c(F)cc(-c2cnn(C(F)F)c2)cc1F)NC(=O)[C@@H](NC(=O)OC)C(C)(C)C(F)(F)F)C(C)(C)C(F)(F)F [Example 19, methyl ((5S,8S,9S,14S)-11-(4-(1-(difluoromethyl)-1H-pyrazol-4-yl)-2,6-difluorobenzyl)-16,16,16-trifluoro-9-hydroxy-15,15-dimethyl-8-(4-((6-(3-(oxetan-3-yl)-3,8-diazabicyclo[3.2.1]octan-8-yl)pyridin-3-yl)ethynyl)benzyl)-3,6,13-trioxo-5-(1,1,1-trifluoro-2-methylpropan-2-yl)-2-oxa-4,7,11,12-tetraazahexadecan-14-yl)carbamate]
- Human Pred Cl. ([1]; human, microsomes): <0.11 L/H/kg
- Rat. Pred. Cl. ([1]; rat, microsomes): 0.29 L/H/kg
- EC50 [2]: 8.43 nM

SMILES: COC(=O)N[C@H](C(=O)N[C@@H](Cc1ccc(C#Cc2cnc(N3C[C@H]4C[C@@H]3CN4C3COC3)nc2)cc1)[C@@H](O)CN(Cc1c(F)cc(-c2ccn(CC(F)F)n2)cc1F)NC(=O)[C@@H](NC(=O)OC)C(C)(C)C(F)(F)F)C(C)(C)C(F)(F)F [Example 25, Methyl ((5S,8S,9S,14S)-11-(4-(1-(2,2-difluoroethyl)-1H-pyrazol-3-yl)-2,6-difluorobenzyl)-16,16,16-trifluoro-9-hydroxy-15,15-dimethyl-8-(4-((2-((1R,4R)-5-(oxetan-3-yl)-2,5-diazabicyclo[2.2.1]heptan-2-yl)pyrimidin-5-yl)ethynyl)benzyl)-3,6,13-trioxo-5-(1,1,1-trifluoro-2-methylpropan-2-yl)-2-oxa-4,7,11,12-tetraazahexadecan-14-yl)carbamate]
- Human Pred Cl. [1, 3]: 0.16 L/H/kg
- Rat. Pred. Cl. [1, 4]: 1.41 L/H/kg
- EC50 [2]: 3.19 nM

SMILES: COC(=O)N[C@H](C(=O)N[C@@H](Cc1ccc(C#Cc2ccc(N3CC4COCC(C3)N4)nc2)cc1)[C@@H](O)CN(Cc1c(F)cc(-c2ccn(C(F)F)n2)cc1F)NC(=O)[C@@H](NC(=O)OC)C(C)(C)C(F)(F)F)C(C)(C)C(F)(F)F [Example 26, Methyl ((5S,8S,9S,14S)-8-(4-((6-(3-oxa-7,9-diazabicyclo[3.3.1]nonan-7-yl)pyridin-3-yl)ethynyl)benzyl)-11-(4-(1-(difluoromethyl)-1H-pyrazol-3-yl)-2,6-difluorobenzyl)-16,16,16-trifluoro-9-hydroxy-15,15-dimethyl-3,6,13-trioxo-5-(1,1,1-trifluoro-2-methylpropan-2-yl)-2-oxa-4,7,11,12-tetraazahexadecan-14-yl)carbamate]
- Human Pred Cl. ([1]; human, microsomes): <0.11 L/H/kg
- Rat. Pred. Cl. ([1]; rat, microsomes): 1.6 L/H/kg
- EC50 [2]: 4.24 nM

SMILES: COC(=O)N[C@H](C(=O)N[C@@H](Cc1ccc(C#Cc2cnc(N3C[C@H]4C[C@@H]3CN4C3COC3)nc2)cc1)[C@@H](O)CN(Cc1c(F)cc(-c2ccn(C3CC3)n2)cc1F)NC(=O)[C@@H](NC(=O)OC)C(C)(C)C(F)(F)F)C(C)(C)C(F)(F)F [Example 31, Methyl ((5S,8S,9S,14S)-11-(4-(1-cyclopropyl-1H-pyrazol-3-yl)-2,6-difluorobenzyl)-16,16,16-trifluoro-9-hydroxy-15,15-dimethyl-8-(4-((2-((1R,4R)-5-(oxetan-3-yl)-2,5-diazabicyclo[2.2.1]heptan-2-yl)pyrimidin-5-yl)ethynyl)benzyl)-3,6,13-trioxo-5-(1,1,1-trifluoro-2-methylpropan-2-yl)-2-oxa-4,7,11,12-tetraazahexadecan-14-yl)carbamate]
- Human Pred Cl. [1, 3]: <0.11 L/H/kg
- Rat. Pred. Cl. [1, 4]: 0.75 L/H/kg
- EC50 [2]: 3.06 nM

SMILES: COC(=O)N[C@H](C(=O)N[C@@H](Cc1ccc(C#Cc2cnc(N3C[C@H]4C[C@@H]3CN4C3COC3)nc2)cc1)[C@@H](O)CN(Cc1c(F)cc(-c2ccn(C(F)F)n2)cc1F)NC(=O)[C@@H](NC(=O)OC)C(C)(C)C(F)(F)F)C(C)(C)C(F)(F)F [Example 32, Methyl ((5S,8S,9S,14S)-11-(4-(1-(difluoromethyl)-1H-pyrazol-3-yl)-2,6-difluorobenzyl)-16,16,16-trifluoro-9-hydroxy-15,15-dimethyl-8-(4-((2-((1R,4R)-5-(oxetan-3-yl)-2,5-diazabicyclo[2.2.1]heptan-2-yl)pyrimidin-5-yl)ethynyl)benzyl)-3,6,13-trioxo-5-(1,1,1-trifluoro-2-methylpropan-2-yl)-2-oxa-4,7,11,12-tetraazahexadecan-14-yl)carbamate]
- Human Pred Cl. [1, 3]: <0.11 L/H/kg
- Rat. Pred. Cl. [1, 4]: 0.59 L/H/kg
- EC50 [2]: 2.65 nM

SMILES: COC(=O)N[C@H](C(=O)N[C@@H](Cc1ccc(C#Cc2ccc(N3CC4COCC(C3)N4C)nc2)cc1)[C@@H](O)CN(Cc1c(F)cc(-c2ccn(C3CC3)n2)cc1F)NC(=O)[C@@H](NC(=O)OC)C(C)(C)C(F)(F)F)C(C)(C)C(F)(F)F [Example 35]
- Dog. Pred. Cl. ([1]; dog, microsomes): 1.74 L/H/kg
- Human Pred Cl. ([1]; human, microsomes): <0.11 L/H/kg
- Rat. Pred. Cl. ([1]; rat, microsomes): 2.1 L/H/kg
- EC50 [2]: 3.54 nM

SMILES: COC(=O)N[C@H](C(=O)N[C@@H](Cc1ccc(C#Cc2cnc(N3CC4CCC(C3)N4C3COC3)nc2)cc1)[C@@H](O)CN(Cc1c(F)cc(-c2ccn(C3CC3)n2)cc1F)NC(=O)[C@@H](NC(=O)OC)C(C)(C)C(F)(F)F)C(C)(C)C(F)(F)F [Example 37, Methyl ((5S,8S,9S,14S)-11-(4-(1-cyclopropyl-1H-pyrazol-3-yl)-2,6-difluorobenzyl)-16,16,16-trifluoro-9-hydroxy-15,15-dimethyl-8-(4-((2-(8-(oxetan-3-yl)-3,8-diazabicyclo[3.2.1]octan-3-yl)pyrimidin-5-yl)ethynyl)benzyl)-3,6,13-trioxo-5-(1,1,1-trifluoro-2-methylpropan-2-yl)-2-oxa-4,7,11,12-tetraazahexadecan-14-yl)carbamate]
- Human Pred Cl. ([1]; human, microsomes): <0.11 L/H/kg
- Rat. Pred. Cl. ([1]; rat, microsomes): 0.32 L/H/kg
- EC50 [2]: 6.75 nM
